# Reference: PubChem BioAssay AID1259407 (Chemical Carcinogenesis Research Information System (CCRIS), 2018)
# Active and inactive are the calls of the source. No rule for the calls is given here. *1 amine or outer side, *2 acyl side, *3 side chain or, on linkers, in order; H or OH if unused. Where a SMILES comes first, the peptide text is derived from it. Bridges are numbered along the chain shown (N, C = ends). Roman numbers before positions name the chains, in order. [ ]: non-standard residue; d: D form. Actinocin(9to1) = Cc1c2oc3c(C)ccc(C(=O)[*:1])c3nc-2c(C(=O)[*:2])c(N)c1=O; NMeV = CN[C@H](C(=O)O)C(C)C; Sar = CNCC(=O)O
# System: CCRIS mutagenicity, Ames/micronucleus/aberration tests
# Assay: CCRIS mutagenicity studies
# [1] = Test System: AMES SALMONELLA TYPHIMURIUM, Strain/Indicator: TA98, Metabolic Activation: NONE, Method: STANDARD PLATE
# [2] = Test System: AMES SALMONELLA TYPHIMURIUM, Strain/Indicator: TA97, Metabolic Activation: NONE, Method: PREINCUBATION
# [3] = Test System: AMES SALMONELLA TYPHIMURIUM, Strain/Indicator: TA102, Metabolic Activation: NONE, Method: PREINCUBATION
compound,measurement,setting,value
CCC1(C(C)O)OC1(C(N)=O)C(=O)OC (stereo unspecified),mutagenic call,"Test System: AMES SALMONELLA TYPHIMURIUM, Strain/Indicator: TA98, Metabolic Activation: NONE, Method: DISK ASSAY",inactive; negative
same,mutagenic call,[1],inactive; negative
same,mutagenic call,"Test System: AMES SALMONELLA TYPHIMURIUM, Strain/Indicator: TA98, Metabolic Activation: RAT, LIVER, S-9, AROCLOR 1254, Method: DISK ASSAY",inactive; negative
same,mutagenic call,"Test System: AMES SALMONELLA TYPHIMURIUM, Strain/Indicator: TA98, Metabolic Activation: RAT, LIVER, S-9, AROCLOR 1254, Method: STANDARD PLATE",inactive; negative
CC(C)COC(=O)Cc1ccccc1,mutagenic call,[2],inactive; negative
same,mutagenic call,"Test System: AMES SALMONELLA TYPHIMURIUM, Strain/Indicator: TA97, Metabolic Activation: RAT, LIVER, S-9, AROCLOR 1254, Method: PREINCUBATION",inactive; negative
same,mutagenic call,[3],inactive; negative
same,mutagenic call,"Test System: AMES SALMONELLA TYPHIMURIUM, Strain/Indicator: TA102, Metabolic Activation: RAT, LIVER, S-9, AROCLOR 1254, Method: PREINCUBATION",inactive; negative
O=[N+]([O-])c1ccc2c3c(cccc13)C=C2,mutagenic call,[1],active; positive
CCC(CO)[N+](=O)[O-] (stereo unspecified),mutagenic call,"Test System: AMES SALMONELLA TYPHIMURIUM, Strain/Indicator: TA97, Metabolic Activation: HAMSTER, LIVER, S-9, AROCLOR 1254 (10%), Method: PREINCUBATION",inactive; negative
same,mutagenic call,"Test System: AMES SALMONELLA TYPHIMURIUM, Strain/Indicator: TA97, Metabolic Activation: HAMSTER, LIVER, S-9, AROCLOR 1254 (30%), Method: PREINCUBATION",inactive; negative
same,mutagenic call,[2],inactive; negative
same,mutagenic call,"Test System: AMES SALMONELLA TYPHIMURIUM, Strain/Indicator: TA97, Metabolic Activation: RAT, LIVER, S-9, AROCLOR 1254 (10%), Method: PREINCUBATION",inactive; negative
same,mutagenic call,"Test System: AMES SALMONELLA TYPHIMURIUM, Strain/Indicator: TA97, Metabolic Activation: RAT, LIVER, S-9, AROCLOR 1254 (30%), Method: PREINCUBATION",inactive; negative
same,mutagenic call,"Test System: AMES SALMONELLA TYPHIMURIUM, Strain/Indicator: TA98, Metabolic Activation: HAMSTER, LIVER, S-9, AROCLOR 1254 (10%), Method: PREINCUBATION",inactive; negative
same,mutagenic call,"Test System: AMES SALMONELLA TYPHIMURIUM, Strain/Indicator: TA98, Metabolic Activation: HAMSTER, LIVER, S-9, AROCLOR 1254 (30%), Method: PREINCUBATION",inactive; negative
same,mutagenic call,"Test System: AMES SALMONELLA TYPHIMURIUM, Strain/Indicator: TA98, Metabolic Activation: NONE, Method: PREINCUBATION",inactive; negative
same,mutagenic call,"Test System: AMES SALMONELLA TYPHIMURIUM, Strain/Indicator: TA98, Metabolic Activation: RAT, LIVER, S-9, AROCLOR 1254 (10%), Method: PREINCUBATION",inactive; negative
same,mutagenic call,"Test System: AMES SALMONELLA TYPHIMURIUM, Strain/Indicator: TA98, Metabolic Activation: RAT, LIVER, S-9, AROCLOR 1254 (30%), Method: PREINCUBATION",inactive; negative
same,mutagenic call,"Test System: AMES SALMONELLA TYPHIMURIUM, Strain/Indicator: TA98, Metabolic Activation: RAT, LIVER, S-9, AROCLOR, Method: PREINCUBATION",inactive; negative
same,mutagenic call,"Test System: AMES SALMONELLA TYPHIMURIUM, Strain/Indicator: TA100, Metabolic Activation: HAMSTER, LIVER, S-9, AROCLOR 1254 (10%), Method: PREINCUBATION",inactive; negative
same,mutagenic call,"Test System: AMES SALMONELLA TYPHIMURIUM, Strain/Indicator: TA100, Metabolic Activation: HAMSTER, LIVER, S-9, AROCLOR 1254 (30%), Method: PREINCUBATION",inactive; negative
same,mutagenic call,"Test System: AMES SALMONELLA TYPHIMURIUM, Strain/Indicator: TA100, Metabolic Activation: NONE, Method: PREINCUBATION",inactive; negative
same,mutagenic call,"Test System: AMES SALMONELLA TYPHIMURIUM, Strain/Indicator: TA100, Metabolic Activation: RAT, LIVER, S-9, AROCLOR 1254 (10%), Method: PREINCUBATION",inactive; negative
same,mutagenic call,"Test System: AMES SALMONELLA TYPHIMURIUM, Strain/Indicator: TA100, Metabolic Activation: RAT, LIVER, S-9, AROCLOR 1254 (30%), Method: PREINCUBATION",inactive; negative
same,mutagenic call,"Test System: AMES SALMONELLA TYPHIMURIUM, Strain/Indicator: TA100, Metabolic Activation: RAT, LIVER, S-9, AROCLOR, Method: PREINCUBATION",inactive; negative
same,mutagenic call,[3],inactive; negative
same,mutagenic call,"Test System: AMES SALMONELLA TYPHIMURIUM, Strain/Indicator: TA102, Metabolic Activation: RAT, LIVER, S-9, AROCLOR, Method: PREINCUBATION",inactive; negative
same,mutagenic call,"Test System: AMES SALMONELLA TYPHIMURIUM, Strain/Indicator: TA1535, Metabolic Activation: HAMSTER, LIVER, S-9, AROCLOR 1254 (10%), Method: PREINCUBATION",inactive; negative
same,mutagenic call,"Test System: AMES SALMONELLA TYPHIMURIUM, Strain/Indicator: TA1535, Metabolic Activation: HAMSTER, LIVER, S-9, AROCLOR 1254 (30%), Method: PREINCUBATION",inactive; negative
same,mutagenic call,"Test System: AMES SALMONELLA TYPHIMURIUM, Strain/Indicator: TA1535, Metabolic Activation: NONE, Method: PREINCUBATION",inactive; negative
same,mutagenic call,"Test System: AMES SALMONELLA TYPHIMURIUM, Strain/Indicator: TA1535, Metabolic Activation: RAT, LIVER, S-9, AROCLOR 1254 (10%), Method: PREINCUBATION",inactive; negative
same,mutagenic call,"Test System: AMES SALMONELLA TYPHIMURIUM, Strain/Indicator: TA1535, Metabolic Activation: RAT, LIVER, S-9, AROCLOR 1254 (30%), Method: PREINCUBATION",inactive; negative
same,mutagenic call,"Test System: AMES SALMONELLA TYPHIMURIUM, Strain/Indicator: TA1537, Metabolic Activation: HAMSTER, LIVER, S-9, AROCLOR 1254 (30%), Method: PREINCUBATION",inactive; negative
same,mutagenic call,"Test System: AMES SALMONELLA TYPHIMURIUM, Strain/Indicator: TA1537, Metabolic Activation: NONE, Method: PREINCUBATION",inactive; negative
same,mutagenic call,"Test System: AMES SALMONELLA TYPHIMURIUM, Strain/Indicator: TA1537, Metabolic Activation: RAT, LIVER, S-9, AROCLOR 1254 (30%), Method: PREINCUBATION",inactive; negative
[N-]=[N+]=NCC[C@H](N)C(=O)O,mutagenic call,"Test System: AMES SALMONELLA TYPHIMURIUM, Strain/Indicator: TA1530, Metabolic Activation: NONE, Method: STANDARD PLATE",active; positive
Fc1ccc(F)c2c1ccc1ncccc12,mutagenic call,"Test System: AMES SALMONELLA TYPHIMURIUM, Strain/Indicator: TA100, Metabolic Activation: RAT, LIVER, S-9, PHENOBARBITAL AND 5,6-BENZOFLAVONE, Method: PREINCUBATION",active; positive
"Cc1c2oc3c(C)ccc(C(=O)N[C@@H]4C(=O)N[C@H](C(C)C)C(=O)N5CCC[C@H]5C(=O)N(C)CC(=O)N(C)[C@@H](C(C)C)C(=O)O[C@@H]4C)c3nc-2c(C(=O)N[C@@H]2C(=O)N[C@H](C(C)C)C(=O)N3CCC[C@H]3C(=O)N(C)CC(=O)N(C)[C@@H](C(C)C)C(=O)O[C@@H]2C)c(N)c1=O (I: T[dV]P[Sar][NMeV] / II: T[dV]P[Sar][NMeV]; ester I:1-I:C, II:1-II:C; linker I:N-II:N via Actinocin(9to1))",mutagenic call,"End Point: IN VITRO MICRONUCLEUS, Test System: CHO CELLS, Metabolic Activation: RAT, LIVER, S-9, AROCLOR 1254",active; positive
same,mutagenic call,"End Point: IN VITRO MICRONUCLEUS, Test System: V79 CELLS, Metabolic Activation: NONE",active; positive
same,mutagenic call,[1],inactive; negative
same,mutagenic call,"Test System: AMES SALMONELLA TYPHIMURIUM, Strain/Indicator: TA100, Metabolic Activation: NONE, Method: STANDARD PLATE",inactive; negative
same,mutagenic call,"Test System: AMES SALMONELLA TYPHIMURIUM, Strain/Indicator: TA102, Metabolic Activation: NONE, Method: STANDARD PLATE",inactive; negative
same,mutagenic call,"Test System: AMES SALMONELLA TYPHIMURIUM, Strain/Indicator: TA1537, Metabolic Activation: NONE, Method: STANDARD PLATE",inactive; negative
same,mutagenic call,"Test System: E. COLI, Strain/Indicator: WP2 (HCR), Metabolic Activation: NONE, Method: STANDARD PLATE",inactive; negative
same,mutagenic call,"Test System: MOUSE LYMPHOMA, Strain/Indicator: L5178Y (TK+/TK-), Metabolic Activation: NONE, Method: SUSPENSION/PLATE",active; positive
